Legend:
[1] = design: method as in doi:10.37547/TAJMSPR/Volume02Issue07-17; conditions: rats, compared with verapamil; cited from earlier work
[2] = design: method as in doi:10.37547/TAJMSPR/Volume02Issue07-17; conditions: cited from earlier work
[3] = test system: Sarcoplasmic reticulum RyR2Ca^2+ channels; design: method as in doi:10.13005/bpj/1892; conditions: cited from earlier work
[4] = Long-term storage stability of DH stock solutions; type: physicochemical
Procedure: (§1) Although acetonitrile precipitates most of the protein, plasma samples contain phospholipids, metabolites, etc., that interfere with the detection of DH and IS. Specificity was mainly examined at DH and IS retention times without interference peaks in blank plasma. In addition, samples tested after administration should not show interfering peaks at the DH and IS peak times. The standard curves were made up of 8 nonzero analyte points, and the linearity was tested. The correlation of peak area (analyte/IS) with the labeled plasma concentration was plotted for regression analysis. This analyte was predicted to have a correlation coefficient (r^2) of more than 0.99 with the corresponding standard curve. The relative standard deviation (RSD) and relative error (RE) values were calculated by measuring six repeated QC samples on the same day to evaluate the intra-day precision and accuracy. Inter-day precision and accuracy were characterized by RSD and RE, respectively. The recoveries were determined by examining the ratio of the peak areas of DH before and after extraction. The matrix effect is the ratio of the peak area of DH added to plasma and DH dissolved in the solvent. The stability evaluation should guarantee that the concentration of the analyte remains unchanged throughout the sample preparation and analysis process, as well as during storage. Stability studies include long-term storage stability at −80 °C (1, 7 and 15 days); repeated freeze–thaw stability; autosampler stability; room temperature stability; and long-term storage stability of stock solutions.

[5] = Stability of DH in rat plasma samples (autosampler, −80 °C storage, room temperature, freeze–thaw); type: in vitro ADME; conditions: for Accuracy, 4 h / Accuracy, 8 h / Accuracy, 12 h: autosampler; for Accuracy, Room temper: room temperature; for Accuracy, 1 day / Accuracy, 7 days / Accuracy, 15 days: stored at −80 °C; for Accuracy, Thaw: three freeze–thaw cycles
Procedure: Three concentrations were used to test the stability of plasma samples in a variety of circumstances. […] Its accuracy range was 97.46–109.44%. When samples were stored at −80 °C, the accuracy of the samples ranged from 99.44% to 109.22% at three concentrations on days 1, 7, and 15. The prepared QC samples were placed in the autosampler and injected at 4, 8, and 12 h. The accuracy was calculated to be in the range of 103.34–110.57%. The prepared stability samples were stored at −80 °C and the accuracy range was measured from 97.37% to 104.56% after three sequential freeze–thaw cycles.
DH was added to the blank plasma to produce concentrations of 1, 10, 100, and 500 ng/mL QC samples. Then, 10 µL DH was added to blank plasma and vortexed for 3 s. Next, 10 µL IS was added to the plasma and vortexed for 3 s, while 300 µL of acetonitrile was added to the above plasma, vortexed for 1 min, and centrifuged for 7 min. The mixture supernatant was collected and blown dry at 40 °C under nitrogen. Blow-dried samples were re-dissolved in 100 μL of 30% acetonitrile in water and centrifuged for 7 min.
as §1

[6] = test system: membrane surface Na^+–Ca^2+ exchange; design: method as in doi:10.13005/bpj/1892; conditions: decreases sarcoplasmic reticulum Ca2+ release; cited from earlier work
[7] = nominal concentration 100 ng/mL
[8] = nominal concentration 500 ng/mL

## COc1cc2c(cc1OC)C(c1ccc(N(C)C)cc1)NCC2 (centres unmarked) [DH, N, N-dimethylaniline-heliamine]
[1]
  Acute toxicity parameters: more than six times lower than those of verapamil
[2]
  antiarrhythmic activity: promising antiarrhythmic activity
[3]
  inhibition of sarcoplasmic reticulum RyR2 Ca2+ channels: inhibited
[4]; nominal concentration 10 ng/mL
  Accuracy, Stock solution: 104.96%
[4]; [7]
  Accuracy, Stock solution: 99.49%
[4]; [8]
  Accuracy, Stock solution: 96.24%
[5]; nominal concentration 10 ng/mL
  Accuracy, 4 h: 110.30%
  Accuracy, 8 h: 108.80%
  Accuracy, 12 h: 110.57%
  Accuracy, Room temper: 109.44%
  Accuracy, 1 day: 109.12%
  Accuracy, 7 days: 108.43%
  Accuracy, 15 days: 106.68%
  Accuracy, Thaw: 100.00%
[5]; [7]
  Accuracy, 4 h: 106.65%
  Accuracy, 8 h: 106.69%
  Accuracy, 12 h: 103.81%
  Accuracy, Room temper: 101.36%
  Accuracy, 1 day: 103.58%
  Accuracy, 7 days: 106.23%
  Accuracy, 15 days: 101.13%
  Accuracy, Thaw: 104.56%
[5]; [8]
  Accuracy, 4 h: 105.03%
  Accuracy, 8 h: 103.54%
  Accuracy, 12 h: 103.34%
  Accuracy, Room temper: 97.46%
  Accuracy, 1 day: 99.17%
  Accuracy, 7 days: 105.59%
  Accuracy, 15 days: 94.99%
  Accuracy, Thaw: 97.37%
[5]; kept at room temperature
  time stable in rat plasma samples: at least 12 h
[6]
  membrane surface Na+–Ca2+ exchange inhibition: inhibitor
